Assay results reported in patent US9109041B2, “Analog compounds of analgesic peptides derived from the venom of crotalus durissus terrificus snakes, their uses, compositions, methods of preparation and purification” (priority 2004, dated 2015).

What was measured:
[1] = system: carrageenin-induced hyperalgesia; test: rat paw pressure test, carrageenin-induced hyperalgesia; type: in vivo
Experimental: The antinociceptive effect of the synthetic peptide was evaluated in the inflammatory hyperalgesia induced by carrageenin. […] Saline, administered by the same route was used as control.
As determined in the PGE2 model, the participation of opioid receptors in the antinociceptive effect of the peptide SEQ ID NO: 2 in the carrageenin-induced hyperalgesia (Table 10) was investigated. Therefore, the animals were treated with CTOP, a specific μ receptor antagonist (20 μg/paw), nor-BNI, a specific κ receptor antagonist (50 μg/paw) or with ICI 174.864, a specific δ receptor antagonist (10 μg/paw), injected by i.pl. route concomitantly to carrageenin. Peptide was administered in the dose of 1 μg/kg, orally, immediately before carrageenin.

[2] = system: hyperalgesia induced by chronic constriction of the sciatic nerve; test: hyperalgesia induced by chronic constriction of the sciatic nerve (rat paw pressure test); type: in vivo; settings: for pain threshold, BM: before surgery; for pain threshold, FM 1 h: day 14, 1 h after peptide; for pain threshold, FM 3 h: day 14, 3 h after peptide; for pain threshold, FM 24 h: day 14, 24 h after peptide; for pain threshold, FM 48 h: day 14, 48 h after peptide; for pain threshold, FM 72 h: day 14, 72 h after peptide; for pain threshold, FM 96 h: day 14, 96 h after peptide; for pain threshold, IM: day 14 after surgery, before peptide
Experimental: For the induction of neuropathic pain, surgery was performed in the sciatic nerve, in accordance with the method described by Bennett, G. J and Xie, Y. K. (Pain, 33:87-107, 1988). The animals were anesthetized with halothane. The sciatic nerve was exposed in the middle region of the thigh, moving away the femoral biceps muscle. Close to the trifurcation of the sciatic nerve, 7 mm of distance from the trifurcation, 4 loose ligations were performed (chromed catgut 4-0) around it, distant from each other in approximately 1 mm. The bindings were performed along the nerve, up to 4-5 mm from the initial point. The incision was sutured in layers, using silk suture thread number 4-0.
The test was applied before (BM-basal measurement) and on the 14th day after the surgery, to characterize the development of neuropathic pain.
The results were analyzed by comparing the means of the basal and initial measurements or by comparing the means of the initial and final measurements or, when determined, through the comparison of the means obtained in the different experimental groups.
For this purpose, the animals were treated with CTOP, a specific μ receptor antagonist (20 μg/paw), nor-BNI, a specific κ receptor antagonist (50 μg/paw) or with ICI 174,864, a specific δ receptor antagonist (10 μg/paw). The antagonists were injected, by intraplantar route. The peptide was administered in the dose of 5 μg/kg, orally, immediately before the injection of the opioid antagonists.
The results were analyzed comparing the mean values of the basal and initial measurements, or of the initial and final measurements or, when determined, by comparing the mean values obtained in the different experimental groups (Tables 15 and 16).

Xaa-Phe-Ser-Pro-Glu-Asn-Cys-Gln-Gly-Glu-Ser-Gln-Pro-Cys [SEQ ID NO: 2]
pain threshold, FM (g) ± S.E.M ([1]; 1 μg/kg p.o. + CTOP 20 μg/paw i.pl. with carrageenin, after carrageenin): 126 ± 2.92 g
pain threshold, IM (g) ± S.E.M. ([1]; 1 μg/kg p.o. + CTOP 20 μg/paw i.pl., before carrageenin): 76 ± 1.87 g
pain threshold, FM (g) ± S.E.M ([1]; 1 μg/kg p.o. + ICI174,864 10 μg/paw i.pl. with carrageenin, after carrageenin): 128 ± 2.00 g
pain threshold, IM (g) ± S.E.M. ([1]; 1 μg/kg p.o. + ICI174,864 10 μg/paw i.pl., before carrageenin): 77 ± 1.22 g
pain threshold, FM (g) ± S.E.M ([1]; 1 μg/kg p.o. + nor-BNI 50 μg/paw i.pl. with carrageenin, after carrageenin): 56 ± 1.00 g
pain threshold, IM (g) ± S.E.M. ([1]; 1 μg/kg p.o. + nor-BNI 50 μg/paw i.pl., before carrageenin): 78 ± 2.00 g
pain threshold, FM (g) ± S.E.M ([1]; 1 μg/kg p.o., 3 h after carrageenin 200 μg/paw (Table 9)): 116 ± 1.87 g
pain threshold, FM (g) ± S.E.M ([1]; 1 μg/kg p.o., after carrageenin (Table 10)): 129 ± 1.87 g
pain threshold, IM (g) ± S.E.M. ([1]; 1 μg/kg p.o., before carrageenin (Table 9)): 77 ± 2.00 g
pain threshold, IM (g) ± S.E.M. ([1]; 1 μg/kg p.o., before carrageenin (Table 10)): 77 ± 1.22 g
opioid receptor antagonist interfering with the antinociceptive effect ([1]; peptide 1 μg/kg p.o., mu, kappa, delta antagonists i.pl.): only kappa opioid receptor antagonist was able to interfere
pain threshold, BM ([2]; 0.0016 μg/kg p.o.): 72 ± 1.22 g
pain threshold, FM 1 h ([2]; 0.0016 μg/kg p.o.): 32 ± 1.22 g
pain threshold, FM 3 h ([2]; 0.0016 μg/kg p.o.): 32 ± 1.22 g
pain threshold, FM 24 h ([2]; 0.0016 μg/kg p.o.): 33 ± 1.22 g
pain threshold, FM 48 h ([2]; 0.0016 μg/kg p.o.): 30 ± 0.00 g
pain threshold, FM 72 h ([2]; 0.0016 μg/kg p.o.): 32 ± 1.22 g
pain threshold, FM 96 h ([2]; 0.0016 μg/kg p.o.): 32 ± 1.22 g
pain threshold, IM ([2]; 0.0016 μg/kg p.o.): 33 ± 1.22 g
pain threshold, BM ([2]; 0.008 μg/kg p.o.): 74 ± 1.87 g
pain threshold, FM 1 h ([2]; 0.008 μg/kg p.o.): 34 ± 1.00 g
pain threshold, FM 3 h ([2]; 0.008 μg/kg p.o.): 30 ± 1.58 g
pain threshold, FM 24 h ([2]; 0.008 μg/kg p.o.): 30 ± 0.00 g
pain threshold, FM 48 h ([2]; 0.008 μg/kg p.o.): 33 ± 1.22 g
pain threshold, FM 72 h ([2]; 0.008 μg/kg p.o.): 31 ± 1.00 g
pain threshold, FM 96 h ([2]; 0.008 μg/kg p.o.): 32 ± 1.22 g
pain threshold, IM ([2]; 0.008 μg/kg p.o.): 33 ± 1.22 g
pain threshold, BM ([2]; 0.04 μg/kg p.o.): 71 ± 1.00 g
pain threshold, FM 1 h ([2]; 0.04 μg/kg p.o.): 29 ± 1.00 g
pain threshold, FM 3 h ([2]; 0.04 μg/kg p.o.): 30 ± 0.00 g
pain threshold, FM 24 h ([2]; 0.04 μg/kg p.o.): 31 ± 1.00 g
pain threshold, FM 48 h ([2]; 0.04 μg/kg p.o.): 33 ± 1.22 g
pain threshold, FM 72 h ([2]; 0.04 μg/kg p.o.): 33 ± 0.00 g
pain threshold, FM 96 h ([2]; 0.04 μg/kg p.o.): 33 ± 1.22 g
pain threshold, IM ([2]; 0.04 μg/kg p.o.): 33 ± 1.22 g
pain threshold, BM ([2]; 0.2 μg/kg p.o.): 73 ± 1.22 g
pain threshold, FM 1 h ([2]; 0.2 μg/kg p.o.): 51 ± 1.87 g
pain threshold, FM 3 h ([2]; 0.2 μg/kg p.o.): 56 ± 1.87 g
pain threshold, FM 24 h ([2]; 0.2 μg/kg p.o.): 52 ± 1.22 g
pain threshold, FM 48 h ([2]; 0.2 μg/kg p.o.): 54 ± 1.00 g
pain threshold, FM 72 h ([2]; 0.2 μg/kg p.o.): 53 ± 1.22 g
pain threshold, FM 96 h ([2]; 0.2 μg/kg p.o.): 33 ± 1.22 g
pain threshold, IM ([2]; 0.2 μg/kg p.o.): 31 ± 1.00 g
pain threshold, BM ([2]; 1 μg/kg p.o.): 72 ± 1.22 g
pain threshold, FM 1 h ([2]; 1 μg/kg p.o.): 73 ± 1.22 g
pain threshold, FM 3 h ([2]; 1 μg/kg p.o.): 73 ± 1.22 g
pain threshold, FM 24 h ([2]; 1 μg/kg p.o.): 71 ± 1.00 g
pain threshold, FM 48 h ([2]; 1 μg/kg p.o.): 74 ± 1.00 g
pain threshold, FM 72 h ([2]; 1 μg/kg p.o.): 71 ± 1.00 g
pain threshold, FM 96 h ([2]; 1 μg/kg p.o.): 33 ± 1.22 g
